melting point	Structure (SMILES)
126 to 129 °C	CN1C(=O)[C@@H](NC(=O)C2(NC(=O)Cc3cc(F)cc(F)c3)CCCCC2)N=C(c2ccccc2)c2ccccc21
112 to 117 °C	CN1C(=O)[C@@H](NC(=O)C2(NC(=O)Cc3cc(F)cc(F)c3)CCCC2)N=C(c2ccccc2)c2ccccc21
212 to 214 °C	CN1C(=O)[C@@H](NC(=O)C2(NC(=O)Cc3cc(F)cc(F)c3)CC2)N=C(c2ccccc2)c2ccccc21
88 to 103 °C	CN1C(=O)[C@@H](NC(=O)C2(NC(=O)CCC3CCCC3)CCCCC2)N=C(c2ccccc2)c2ccccc21
175 to 178 °C	CC(C)CCC(=O)NC1(C(=O)NC2N=C(C(C)(C)C)c3ccccc3N(C)C2=O)CCCC1 (stereo not shown) [Example 61, N-((N-[5-(tert-Butyl)-1-methyl-2-oxo(3H-benzo[f]1,4-diazepin-3-yl)]carbamoyl)cyclopentyl)-4-methylpentanamide]
175 to 177 °C	CCCCN1C(=O)C(NC(=O)C2(NC(=O)CCC(C)C)CCCC2)N=C(C(C)(C)C)c2ccccc21 (stereo not shown) [Example 62, N-({N-[5-(tert-Butyl)-1-butyl-2-oxo(3H-benzo[f]1,4-diazepin-3-yl)]carbamoyl}cyclopentyl)-4-methylpentanamide]
63 to 67 °C	CCCCC1=NC(NC(=O)C2(NC(=O)CCC(C)C)CCCC2)C(=O)N(Cc2ccccn2)c2ccccc21 (stereo not shown) [Example 63, N-({N-[5-Butyl-2-oxo-1-(2-pyridylmethyl)(3H-benzo[f]1,4-diazepin-3-yl)]carbamoyl}cyclopentyl)-4-methylpentanamide]

Source: patent US7390896B2, “Cyclic malonamides as inhibitors of Aβ protein production” (Bristol-Myers Squibb Pharma Corporation, priority 2000, dated 2008)
